Results: publication PMC11345836 (Journal of Medicinal Chemistry, 2024)
In brackets after ≈: the same amount, converted by molar mass. Like-named read-outs stand apart in the source and are kept apart here.

Key:
[1] = Shake-flask LogD; type: physicochemical
[2] = rat, p.o. 10 mg/kg, fed
[3] = Rat liver microsome stability; details: for microsomal CLint: rat, microsomes; for predicted hepatic clearance, rat: scaled from rat liver microsomes
[4] = Solubility of solid forms; type: physicochemical
[5] = cited from earlier work
[6] = cited from earlier work; remark: listed apart in the source
[7] = cited from earlier work; remark: listed apart in the source
[8] = cited from earlier work; remark: listed apart in the source
[9] = cited from earlier work; remark: listed apart in the source
[10] = 0.3–10 μM; cited from earlier work
[11] = 0.3–10 μM; cited from earlier work; remark: listed apart in the source
[12] = 0.3–10 μM; cited from earlier work; remark: listed apart in the source
[13] = 2–200 μM; cited from earlier work
[14] = NMR EXSY rotamer exchange kinetics; details: for Rotamer exchange in EXSY: 300 ms mixing time at 298 K; for Torsion Rotation t1/2: extrapolated to 298 K

Cc1cnc(C(=O)N[C@H]2CCCCC/C=C\[C@@H]3C[C@@]3(C(=O)NS(=O)(=O)C3CC3)NC(=O)[C@@H]3C[C@@H](Oc4nc5ccccc5c5ccccc45)CN3C2=O)cn1 [paritaprevir]
logD [1]: 3.1

COC(=O)N[C@H](C(=O)N1C[C@H](OC(F)(F)F)C[C@H]1C(=O)N[C@H](C#N)C[C@@H]1CCNC1=O)C(C)(C)C [Compound 5, Methyl ((S)-1-((2S,4R)-2-(((S)-1-cyano-2-((S)-2-oxopyrrolidin-3-yl)ethyl)carbamoyl)-4-(trifluoromethoxy)pyrrolidin-1-yl)-3,3-dimethyl-1-oxobutan-2-yl)carbamate]
Fa × Fg ([2]; amorphous, solution): 12.2 (11.4, 13.2) % | Oral F ([2]; amorphous, solution): 8.6 (8.0, 9.2) % | microsomal CLint [3]: < 5.8 µL/min/mg | predicted hepatic clearance, rat [3]: < 11 mL/min/kg

CC(C)(C)[C@H](NC(=O)C(F)(F)F)C(=O)N1C[C@H](OC(F)F)C[C@H]1C(=O)N[C@H](C#N)C[C@@H]1CCNC1=O [Compound 6, (2S,4R)-N-((S)-1-Cyano-2-((S)-2-oxopyrrolidin-3-yl)ethyl)-4-(difluoromethoxy)-1-((S)-3,3-dimethyl-2-(2,2,2-trifluoroacetamido)butanoyl)pyrrolidine-2-carboxamide]
Fa × Fg ([2]; 50% ASD): 7.2 (7.3, 6.9) % | Oral F ([2]; 50% ASD): 4.2 (4.3, 4.1) % | Fa × Fg ([2]; crystalline, suspension): 20.2 (20.0, 20.4) % | microsomal CLint [3]: < 5.8 µL/min/mg | predicted hepatic clearance, rat [3]: < 11 mL/min/kg

Cc1cccc(C)c1OCC(=O)N[C@@H](Cc1ccccc1)[C@@H](O)C[C@H](Cc1ccccc1)NC(=O)[C@H](C(C)C)N1CCCNC1=O [lopinavir]
logD [1]: 3.8

CC(C)(C)[C@H](NC(=O)C(F)(F)F)C(=O)N1C[C@H]2[C@@H]([C@H]1C(=O)N[C@H](C#N)C[C@@H]1CCNC1=O)C2(C)C [Compound 1, nirmatrelvir]
solubility ([4]; Form: Anhydrous): 1200 µg/mL (≈ 2.4 mM) | solubility ([4]; Form: MTBE): 7210 µg/mL (≈ 14.4 mM) | CLint,app, substrate depletion in HLM [5]: 28.8 µL/min/mg | predicted hepatic clearance, human ([5]; from substrate depletion in HLM): 6.3 mL/min/kg | observed CLp, rats [6]: 22.7 mL/min/kg | observed CLp, monkeys [7]: 15.8 mL/min/kg | predicted hepatic clearance, rats [8]: 5.8 mL/min/kg | predicted hepatic clearance, monkeys [9]: 25 mL/min/kg | fu,p rat plasma [10]: 0.47–0.49 | fu,p monkey plasma [11]: 0.39–0.50 | fu,p human plasma [12]: 0.30–0.33 | fu,p dog plasma [13]: 0.024–0.69 | Energy of Rotation ([14]; Form: Anhydrous): 20.4 kcal/mol | Rotamer exchange in EXSY ([14]; Form: Anhydrous): No | Torsion Rotation t1/2 ([14]; Form: Anhydrous): 10.54 min | Energy of Rotation ([14]; Form: MTBE): 20.2 kcal/mol | Rotamer exchange in EXSY ([14]; Form: MTBE): No | Torsion Rotation t1/2 ([14]; Form: MTBE): 10.99 min

COC(=O)N[C@H](C(=O)N1C[C@H](C(F)(F)F)C[C@H]1C(=O)N[C@H](C#N)C[C@@H]1CCCNC1=O)C(C)C [Compound 12, Methyl ((S)-1-((2S,4R)-2-(((S)-1-cyano-2-((S)-2-oxopiperidin-3-yl)ethyl)carbamoyl)-4-(trifluoromethyl)pyrrolidin-1-yl)-3-methyl-1-oxobutan-2-yl)carbamate]
Fa × Fg ([2]; 50% ASD): 15.8 (17.1, 14.5) % | Oral F ([2]; 50% ASD): 8.1 (8.8, 7.5) % | Fa × Fg ([2]; amorphous, solution): 14.7 (12.3, 17.6) % | Oral F ([2]; amorphous, solution): 7.7 (6.3,9.0) % | microsomal CLint [3]: < 5.8 µL/min/mg | predicted hepatic clearance, rat [3]: < 11 mL/min/kg
